In paper PMC10584170, “Machine learning-based phenotypic imaging to characterise the targetable biology of Plasmodium falciparum male gametocytes for the development of transmission-blocking antimalarials” (PLOS Pathogens, 2023):
Like-named read-outs stand apart in the source and are kept apart here.

Experiments:
[1] = system: P. falciparum male gametocytes; assay: P. falciparum Dual Gamete Formation Assay (PfDGFA), male readout (exflagellation); format: cell-based, Plasmodium falciparum NF54; conditions: for Selectivity Ratio M: HepG2 Tox50 versus male IC50; for IC50: PfDGFA, 24 h incubation with gametocytes before induction, exflagellation readout, read-out: Male IC50; for HitlevelM: number of replicates with >50% inhibition in the male readout
Method in brief: (§1)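 First, day-14 P. falciparum NF54 gametocytes receive compound for 24 h at 37°C in 1% O2/3% CO2. Next, ookinete medium with Cy3 anti-Pfs25 triggers gametogenesis at 28°C and male exflagellation is imaged. Finally, after 24 h in the dark, Cy3-labelled females are imaged.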

[2] = system: P. falciparum female gametocytes; assay: P. falciparum Dual Gamete Formation Assay (PfDGFA), female readout (Pfs25-positive female gametes); format: cell-based, Plasmodium falciparum NF54; conditions: for Selectivity ratio F: HepG2 Tox50 versus female IC50; for IC50: PfDGFA, 24 h incubation with gametocytes before induction, female gamete readout, read-out: Female IC50; for HitlevelF: number of replicates with >50% inhibition in the female readout
Method in brief: as §1

[3] = system: HepG2 cells; assay: HepG2 cytotoxicity counter-screen; conditions: cytotoxic activity against HepG2 cells
[4] = 2µM, 24h preincubation with gametocytes, average of replicates
[5] = 2µM, 24h preincubation with gametocytes, replicate R1
[6] = 2µM, 24h preincubation with gametocytes, replicate R3
[7] = 2µM, 24h preincubation with gametocytes, replicate R4
[8] = PfDGFA at 2µM, 24h preincubation with gametocytes, average of replicates
[9] = PfDGFA at 2µM, 24h preincubation with gametocytes, replicate R1
[10] = PfDGFA at 2µM, 24h preincubation with gametocytes, replicate R3
[11] = PfDGFA at 2µM, 24h preincubation with gametocytes, replicate R4

Compound | Average inhibition male (%) [1, 4] | % inhibition male (individual replicates) R1 [1, 5] | % inhibition male (individual replicates) R3 [1, 6] | % inhibition male (individual replicates) R4 [1, 7] | Selectivity Ratio M [1] | IC50 [1] | Average inhibition female (%) [2, 4] | % inhibition female (individual replicates) R1 [2, 5] | % inhibition female (individual replicates) R3 [2, 6] | % inhibition female (individual replicates) R4 [2, 7] | Selectivity ratio F [2] | IC50 [2] | Tox50 [3] | IC50 ([1]; Plasmodium falciparum) | IC50 ([2]; Plasmodium falciparum) | further results
O=C(O)C(=O)O.Oc1c(CN2CCC(Cc3ccccc3)CC2)cc(Cl)c2cccnc12 [TCMDC-124594] | 92.4% | 97.5% | 93.3% | 86.9% | 2.09 | 2 µM | 49.8% | 37.8% | 58.8% | 51.4% | 3.66 | 1.14 µM | 4.17 µM | – | – | –
O=C(c1ccc([N+](=O)[O-])o1)N1CCC(Cc2ccc(C(F)(F)F)cc2)CC1 [TCMDC-124805] | – | – | – | – | 70.69 | – | – | – | – | – | 64.48 | – | 28.45 µM | 0.4 µM | 0.44 µM | inhibition at 2 µM ([1]; Plasmodium falciparum, 2µM, 24h preincubation with gametocytes, average of replicates, read-out: Average inhibition male (%)): 101%; inhibition at 2 µM ([1]; Plasmodium falciparum, 2µM, 24h preincubation with gametocytes, replicate R1, read-out: % inhibition male (individual replicates) R1): 98.9%; inhibition at 2 µM ([1]; Plasmodium falciparum, 2µM, 24h preincubation with gametocytes, replicate R2, read-out: % inhibition male (individual replicates) R2): 100%; inhibition at 2 µM ([1]; Plasmodium falciparum, 2µM, 24h preincubation with gametocytes, replicate R3, read-out: % inhibition male (individual replicates) R3): 102%; inhibition at 2 µM ([1]; Plasmodium falciparum, 2µM, 24h preincubation with gametocytes, replicate R4, read-out: % inhibition male (individual replicates) R4): 102%; inhibition at 2 µM ([2]; Plasmodium falciparum, 2µM, 24h preincubation with gametocytes, average of replicates, read-out: Average inhibition female (%)): 55.8%; inhibition at 2 µM ([2]; Plasmodium falciparum, 2µM, 24h preincubation with gametocytes, replicate R1, read-out: % inhibition female (individual replicates) R1): 35.5%; inhibition at 2 µM ([2]; Plasmodium falciparum, 2µM, 24h preincubation with gametocytes, replicate R2, read-out: % inhibition female (individual replicates) R2): 62.7%; inhibition at 2 µM ([2]; Plasmodium falciparum, 2µM, 24h preincubation with gametocytes, replicate R3, read-out: % inhibition female (individual replicates) R3): 38.2%; inhibition at 2 µM ([2]; Plasmodium falciparum, 2µM, 24h preincubation with gametocytes, replicate R4, read-out: % inhibition female (individual replicates) R4): 86.7%
Cc1ccccc1OCC(O)CNC1CCC(NCC(O)COc2ccccc2C)CC1 (stereo not drawn) [TCMDC-125142] | – | – | – | – | 2.74 | 1.94 µM | – | – | – | – | 3.94 | 1.35 µM | 5.33 µM | – | – | Average inhibition male (%) [1, 8]: 76.7%; % inhibition male (individual replicates) R1 [1, 9]: 73.4%; % inhibition male (individual replicates) R3 [1, 10]: 61.7%; % inhibition male (individual replicates) R4 [1, 11]: 90.9%; HitlevelM ([1]; 2µM): 4; Average inhibition female (%) [2, 8]: 34.1%; % inhibition female (individual replicates) R1 [2, 9]: 36.4%; % inhibition female (individual replicates) R3 [2, 10]: 18.2%; % inhibition female (individual replicates) R4 [2, 11]: 27.5%; HitlevelF ([2]; 2µM): 1
Cc1ccc(-n2c(Sc3ncnc4sccc34)nnc2N2CCCC2)cc1 [TCMDC-125247] | – | – | – | – | 192.28 | – | – | – | – | – | 296.87 | – | 73.14 µM | 0.38 µM | 0.25 µM | inhibition at 2 µM ([1]; Plasmodium falciparum, PfDGFA at 2µM, 24h preincubation with gametocytes, average of replicates, read-out: Average inhibition male (%)): 74.6%; inhibition at 2 µM ([1]; Plasmodium falciparum, PfDGFA at 2µM, 24h preincubation with gametocytes, replicate R1, read-out: % inhibition male (individual replicates) R1): 86.9%; inhibition at 2 µM ([1]; Plasmodium falciparum, PfDGFA at 2µM, 24h preincubation with gametocytes, replicate R2, read-out: % inhibition male (individual replicates) R2): 67.1%; inhibition at 2 µM ([1]; Plasmodium falciparum, PfDGFA at 2µM, 24h preincubation with gametocytes, replicate R3, read-out: % inhibition male (individual replicates) R3): 80.2%; inhibition at 2 µM ([1]; Plasmodium falciparum, PfDGFA at 2µM, 24h preincubation with gametocytes, replicate R4, read-out: % inhibition male (individual replicates) R4): 64.2%; HitlevelM ([1]; 2µM): 4; inhibition at 2 µM ([2]; Plasmodium falciparum, PfDGFA at 2µM, 24h preincubation with gametocytes, average of replicates, read-out: Average inhibition female (%)): 63.5%; inhibition at 2 µM ([2]; Plasmodium falciparum, PfDGFA at 2µM, 24h preincubation with gametocytes, replicate R1, read-out: % inhibition female (individual replicates) R1): 56.4%; inhibition at 2 µM ([2]; Plasmodium falciparum, PfDGFA at 2µM, 24h preincubation with gametocytes, replicate R2, read-out: % inhibition female (individual replicates) R2): 85.8%; inhibition at 2 µM ([2]; Plasmodium falciparum, PfDGFA at 2µM, 24h preincubation with gametocytes, replicate R3, read-out: % inhibition female (individual replicates) R3): 26.4%; inhibition at 2 µM ([2]; Plasmodium falciparum, PfDGFA at 2µM, 24h preincubation with gametocytes, replicate R4, read-out: % inhibition female (individual replicates) R4): 85.4%; HitlevelF ([2]; 2µM): 3
CCCC(N)C(=O)NC1CCN(c2c(F)c(N)c3c(=O)c(C(=O)O)cn4c3c2Oc2ccccc2-4)C1.Cl (stereo not drawn) [TCMDC-125701] | 89.8% | 87.0% | 88.1% | 95.7% | 2.29 | 1.31 µM | 53.0% | 43.9% | 47.1% | 70.9% | 0.68 | 4.43 µM | 2.99 µM | – | – | –
S=C(NN=Cc1ccccn1)NC1CC2C=CC1C2 (stereo not drawn) [TCMDC-125752] | 101.0% | 99.9% | 101.6% | 102.9% | 0.29 | 0.5 µM | 59.8% | 34.4% | 45.5% | 74.2% | 0.3 | 0.48 µM | 0.14 µM | – | – | –
CCC1CN2CCc3cc(OC)c(OC)cc3C2CC1CC1NCCc2cc(OC)c(OC)cc21.Cl (stereo not drawn) [TCMDC-125849] | – | – | – | – | – | – | – | – | – | – | – | – | 27.47 µM | 3.53 µM | 0.75 µM | HitlevelM ([1]; 2µM, 24h preincubation): 2; inhibition at 2 µM ([1]; Plasmodium falciparum, 2µM, 24h preincubation with gametocytes prior to induction of gametogenesis, average of replicates, read-out: Average inhibition male (%)): 47.7%; inhibition at 2 µM ([1]; Plasmodium falciparum, 2µM, 24h preincubation with gametocytes prior to induction of gametogenesis, replicate R1, read-out: % inhibition male (individual replicates) R1): 38.6%; inhibition at 2 µM ([1]; Plasmodium falciparum, 2µM, 24h preincubation with gametocytes prior to induction of gametogenesis, replicate R2, read-out: % inhibition male (individual replicates) R2): 27.6%; inhibition at 2 µM ([1]; Plasmodium falciparum, 2µM, 24h preincubation with gametocytes prior to induction of gametogenesis, replicate R3, read-out: % inhibition male (individual replicates) R3): 59.3%; inhibition at 2 µM ([1]; Plasmodium falciparum, 2µM, 24h preincubation with gametocytes prior to induction of gametogenesis, replicate R4, read-out: % inhibition male (individual replicates) R4): 65.1%; HitlevelF ([2]; 2µM, 24h preincubation): 4; times more potent against females than males ([2]; PfDGFA female versus male gametocytes): 4.7; inhibition at 2 µM ([2]; Plasmodium falciparum, 2µM, 24h preincubation with gametocytes prior to induction of gametogenesis, average of replicates, read-out: Average inhibition female (%)): 93.3%; inhibition at 2 µM ([2]; Plasmodium falciparum, 2µM, 24h preincubation with gametocytes prior to induction of gametogenesis, replicate R1, read-out: % inhibition female (individual replicates) R1): 91%; inhibition at 2 µM ([2]; Plasmodium falciparum, 2µM, 24h preincubation with gametocytes prior to induction of gametogenesis, replicate R2, read-out: % inhibition female (individual replicates) R2): 79%; inhibition at 2 µM ([2]; Plasmodium falciparum, 2µM, 24h preincubation with gametocytes prior to induction of gametogenesis, replicate R3, read-out: % inhibition female (individual replicates) R3): 103%; inhibition at 2 µM ([2]; Plasmodium falciparum, 2µM, 24h preincubation with gametocytes prior to induction of gametogenesis, replicate R4, read-out: % inhibition female (individual replicates) R4): 100%
COc1ccc(CCNCCCCCCNCCc2ccc(Cl)c3ccccc23)cc1OC.Cl [TCMDC-131270] | 92.0% | 90.1% | – | 89.1% | 2.16 | 1.87 µM | 44.5% | 48.1% | 32.3% | 35.6% | 0.76 | 5.3 µM | 4.03 µM | – | – | –
